In PubChem BioAssay AID248 (DTP/NCI, 2004):
“And” between values parts separate entries of the source, which are not always exact repeats. Equal values may be shown once. Toxic doses and inconclusive results are not listed. Cut-off read from the data, not from the text of the source: active = T/C of 150% or more; inactive = T/C below 125%.

Test system: L1210 leukemia ip in BDF1 mice, survival T/C
Test: NCI In Vivo Anticancer Drug Screen. Data for tumor model L1210 Leukemia (intraperitoneal) in B6D2F1 (BDF1) mice
Conditions: endpoint: mean survival time, higher = longer survival
In short: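 Survival endpoint. Drug-treated group vs vehicle group, expressed as T divided by C. Tumor passaged by transplantation.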

[1] = dose: 100.0 mg/kg/injection, schedule: Q01DX001 (ip), vehicle: saline
[2] = dose: 100.0 mg/kg/injection, schedule: Q01DX009 (ip), vehicle: saline
[3] = dose: 200.0 mg/kg/injection, schedule: Q01DX001 (ip), vehicle: saline
[4] = dose: 200.0 mg/kg/injection, schedule: Q01DX009 (ip), vehicle: saline
[5] = dose: 400.0 mg/kg/injection, schedule: Q01DX001 (ip), vehicle: saline
[6] = dose: 400.0 mg/kg/injection, schedule: Q01DX009 (ip), vehicle: saline
[7] = dose: 100.0 mg/kg/injection, schedule: Q04DX002 (ip), vehicle: Klucel (hydroxypropylcellulose) (HPC)
[8] = dose: 100.0 mg/kg/injection, schedule: Q04DX002 (ip), vehicle: saline with Tween-80
[9] = dose: 200.0 mg/kg/injection, schedule: Q04DX002 (ip), vehicle: saline with Tween-80
[10] = dose: 400.0 mg/kg/injection, schedule: Q04DX002 (ip), vehicle: saline with Tween-80
[11] = dose: 100.0 mg/kg/injection, schedule: Q04DX003 (ip), vehicle: saline with Tween-80
[12] = dose: 200.0 mg/kg/injection, schedule: Q04DX003 (ip), vehicle: saline with Tween-80
[13] = dose: 100.0 mg/kg/injection, schedule: Q01DX009 (ip), vehicle: saline with Tween-80
[14] = dose: 200.0 mg/kg/injection, schedule: Q01DX009 (ip), vehicle: saline with Tween-80
[15] = dose: 400.0 mg/kg/injection, schedule: Q01DX009 (ip), vehicle: saline with Tween-80
[16] = dose: 50.0 mg/kg/injection, schedule: Q01DX009 (ip), vehicle: saline with Tween-80

Measured: T/C

O=C(O)CCC(=O)O
inactive: dose: 10.0 mg/kg/injection, schedule: Q01DX009 (ip), vehicle: saline 103 % of control and 101 % of control | dose: 20.0 mg/kg/injection, schedule: Q01DX009 (ip), vehicle: saline 100 % of control and 103 % of control | dose: 31.25 mg/kg/injection, schedule: Q01DX015 (ip), vehicle: water 96 % of control | dose: 40.0 mg/kg/injection, schedule: Q01DX009 (ip), vehicle: saline 97 % of control | dose: 62.5 mg/kg/injection, schedule: Q01DX015 (ip), vehicle: water 89 % of control | dose: 62.5 mg/kg/injection, schedule: Q01DX Z (ip), vehicle: water 95 % of control and 91 % of control | dose: 80.0 mg/kg/injection, schedule: Q01DX009 (ip), vehicle: saline 97 % of control and 99 % of control | [1] 96 % of control | [2] 97 % of control and 102 % of control and 92 % of control | dose: 125.0 mg/kg/injection, schedule: Q01DX015 (ip), vehicle: water 96 % of control and 87 % of control | dose: 125.0 mg/kg/injection, schedule: Q01DX Z (ip), vehicle: water 91 % of control and 88 % of control | dose: 160.0 mg/kg/injection, schedule: Q01DX009 (ip), vehicle: saline 93 % of control and 99 % of control | [3] 102 % of control | [4] 94 % of control and 97 % of control and 105 % of control | dose: 250.0 mg/kg/injection, schedule: Q01DX001 (ip), vehicle: water 100 % of control and 91 % of control | dose: 250.0 mg/kg/injection, schedule: Q01DX015 (ip), vehicle: water 93 % of control | dose: 250.0 mg/kg/injection, schedule: Q01DX Z (ip), vehicle: water 94 % of control and 100 % of control | [5] 107 % of control | [6] 105 % of control | dose: 500.0 mg/kg/injection, schedule: Q01DX001 (ip), vehicle: water 100 % of control | dose: 500.0 mg/kg/injection, schedule: Q01DX Z (ip), vehicle: water 94 % of control and 101 % of control

Cc1c(C(=O)NN)no[n+]1[O-]
inactive: dose: 25.0 mg/kg/injection, schedule: Q04DX002 (ip), vehicle: Klucel (hydroxypropylcellulose) (HPC) 96 % of control | dose: 50.0 mg/kg/injection, schedule: Q04DX002 (ip), vehicle: Klucel (hydroxypropylcellulose) (HPC) 93 % of control | [7] 93 % of control

O=C(Nc1ccccc1)Oc1ccc(OC(=O)Nc2ccccc2)c(Cl)c1
inactive: dose: 100.0 mg/kg/injection, schedule: Q04DX002 (ip), vehicle: saline + alcohol 92 % of control | dose: 200.0 mg/kg/injection, schedule: Q04DX002 (ip), vehicle: saline + alcohol 92 % of control

CC1(C)OC2OC(C(O)c3cn(-c4ccccc4)nn3)C(O)C2O1 (stereo not given)
inactive: [8] 97 % of control | [9] 93 % of control | [10] 110 % of control

NC(=O)c1ncn(C2OC(CO)C(O)C2O)c1C(N)=O (stereo not given)
inactive: dose: 100.0 mg/kg/injection, schedule: Q01DX001 (ip), vehicle: carboxymethylcellulose (CMC) 104 % of control | dose: 200.0 mg/kg/injection, schedule: Q01DX001 (ip), vehicle: carboxymethylcellulose (CMC) 123 % of control

COc1cc(OC)c(C(=O)c2ccccc2N)c(OC)c1
inactive: [11] 89 % of control | [12] 87 % of control

CC(C)(C)c1cc(CN2CCCCC2)cc(C(C)(C)C)c1O
inactive: dose: 12.5 mg/kg/injection, schedule: Q04DX003 (ip), vehicle: Klucel (hydroxypropylcellulose) (HPC) 101 % of control | dose: 25.0 mg/kg/injection, schedule: Q04DX003 (ip), vehicle: Klucel (hydroxypropylcellulose) (HPC) 114 % of control | dose: 50.0 mg/kg/injection, schedule: Q04DX003 (ip), vehicle: Klucel (hydroxypropylcellulose) (HPC) 97 % of control

Cc1ccc(S(=O)(=O)N2CCc3ccccc3C(=O)C2Br)cc1 (stereo not given)
inactive: [2] 97 % of control | [4] 94 % of control | [6] 86 % of control

CCCCC(CC)C(=O)C(CCN(C)C)(c1ccccc1)c1ccccn1 (stereo not given)
inactive: dose: 44.0 mg/kg/injection, schedule: Q01DX Z (ip), vehicle: methylcellulose (MC) 101 % of control | dose: 66.0 mg/kg/injection, schedule: Q01DX Z (ip), vehicle: methylcellulose (MC) 97 % of control | dose: 100.0 mg/kg/injection, schedule: Q01DX Z (ip), vehicle: methylcellulose (MC) 96 % of control

Cc1[nH]nc2c(=O)[nH]c(=O)[nH]c12
inactive: dose: 75.0 mg/kg/injection, schedule: Q01DX001 (ip), vehicle: saline 100 % of control | dose: 150.0 mg/kg/injection, schedule: Q01DX001 (ip), vehicle: saline 103 % of control | dose: 300.0 mg/kg/injection, schedule: Q01DX001 (ip), vehicle: saline 107 % of control

NCCCCC(=O)NC(CCCCNC(=O)OCc1ccccc1)C(=O)O (stereo not given)
inactive: [1] 102 % of control | [3] 107 % of control | [5] 105 % of control

O=[N+]([O-])c1ncn(C2CCCCO2)c1Br (stereo not given)
inactive: dose: 50.0 mg/kg/injection, schedule: Q04DX003 (ip), vehicle: gum acacia 99 % of control | dose: 100.0 mg/kg/injection, schedule: Q04DX003 (ip), vehicle: gum acacia 100 % of control | dose: 200.0 mg/kg/injection, schedule: Q04DX003 (ip), vehicle: gum acacia 100 % of control

O=C(NCCNC(=O)Nc1ccc(Cl)cc1)Nc1ccc(Cl)cc1
inactive: dose: 100.0 mg/kg/injection, schedule: Q01DX009 (ip), vehicle: Klucel (hydroxypropylcellulose) (HPC) 96 % of control | dose: 100.0 mg/kg/injection, schedule: Q04DX003 (ip), vehicle: Klucel (hydroxypropylcellulose) (HPC) 98 % of control | dose: 200.0 mg/kg/injection, schedule: Q01DX009 (ip), vehicle: Klucel (hydroxypropylcellulose) (HPC) 94 % of control | dose: 200.0 mg/kg/injection, schedule: Q04DX003 (ip), vehicle: Klucel (hydroxypropylcellulose) (HPC) 93 % of control | dose: 400.0 mg/kg/injection, schedule: Q01DX009 (ip), vehicle: Klucel (hydroxypropylcellulose) (HPC) 91 % of control | dose: 400.0 mg/kg/injection, schedule: Q04DX003 (ip), vehicle: Klucel (hydroxypropylcellulose) (HPC) 92 % of control

CC(C)(C)Nc1ccc(F)cc1
inactive: [7] 106 % of control | dose: 200.0 mg/kg/injection, schedule: Q04DX002 (ip), vehicle: Klucel (hydroxypropylcellulose) (HPC) 95 % of control

Oc1ccc(N=Cc2c(O)ccc3ccccc23)cc1
inactive: dose: 200.0 mg/kg/injection, schedule: Q01DX001 (ip), vehicle: other 90 % of control | dose: 400.0 mg/kg/injection, schedule: Q01DX001 (ip), vehicle: other 91 % of control

CC(C)(C)n1cc(C(=O)c2ccccc2)cc1-c1ccccc1
inactive: [13] 91 % of control | [14] 91 % of control | [15] 87 % of control

C=CCc1ccc(OC(=O)Nc2ccc(SC)cc2)c(OC)c1
inactive: [16] 95 % of control and 87 % of control | dose: 100.0 mg/kg/injection, schedule: Q01DX001 (ip), vehicle: saline with Tween-80 101 % of control | [8] 90 % of control and 91 % of control | [11] 94 % of control | dose: 200.0 mg/kg/injection, schedule: Q01DX001 (ip), vehicle: saline with Tween-80 98 % of control | [9] 93 % of control and 100 % of control | [12] 91 % of control | dose: 400.0 mg/kg/injection, schedule: Q01DX001 (ip), vehicle: saline with Tween-80 97 % of control | [15] 99 % of control and 89 % of control | [10] 94 % of control and 88 % of control | dose: 400.0 mg/kg/injection, schedule: Q04DX003 (ip), vehicle: saline with Tween-80 96 % of control

O=C(NC1CCC(C(=O)O)CC1)OCc1ccccc1 (stereo not given)
inactive: [1] 98 % of control | [2] 109 % of control | dose: 100.0 mg/kg/injection, schedule: Q04DX003 (ip), vehicle: acetone 96 % of control | [3] 102 % of control | [4] 100 % of control | dose: 200.0 mg/kg/injection, schedule: Q04DX003 (ip), vehicle: acetone 102 % of control | [5] 98 % of control | [6] 105 % of control | dose: 400.0 mg/kg/injection, schedule: Q04DX003 (ip), vehicle: acetone 98 % of control

CSC1CCCCC1O (stereo not given)
inactive: [16] 89 % of control | [13] 92 % of control | [14] 92 % of control

[C-]1=CC2C=CC1C1[C-]=CC21.[Cl][Pd][Cl] (stereo not given)
inactive: dose: 3.13 mg/kg/injection, schedule: Q01DX009 (ip), vehicle: saline with Tween-80 103 % of control | dose: 6.25 mg/kg/injection, schedule: Q01DX009 (ip), vehicle: saline with Tween-80 98 % of control | dose: 12.5 mg/kg/injection, schedule: Q01DX009 (ip), vehicle: saline with Tween-80 100 % of control
